# Source: patent publication US20250289827A1, “MORPHIC FORMS OF A MUTANT BRAF DEGRADER AND METHODS OF MANUFACTURE THEREOF” (C4 THERAPEUTICS, INC., priority 2022, published 2025)
# Where a name gives a salt, the structure may show the parent alone.
# What was measured:
# [1] = Equilibration under a temperature cycle (XRPD); assay type: physicochemical; settings: 2-methyltetrahydrofuran, about 8 cycles
# Experimental: The equilibration was executed with a stirring bar on a magnetic stirring plate at a rate of 300 rpm. The obtained suspensions were filtered through a 0.45 µm nylon membrane filter by centrifugation at 14,000 rpm. Solid parts (wet cakes) were investigated by XRPD.
# [2] = Characterization of salt forms (XRPD, DSC, TGA, KF, HPLC, NMR/IC); assay type: physicochemical
# Experimental: Salt Forms identified in the investigation (Table 16) were further characterized by XRPD, DCS, TGA, KF, HPLC and ^1H NMR/IC (Table 19).
# About 419 mg of sodium salt Form F was obtained as off-white solid in 76% yield.
smiles,measurement,setting,value
CCN(C)S(=O)(=O)Nc1ccc(F)c(Oc2ccc3ncn([C@H]4COC5(CCN(C(=O)CC6(O)CCN(c7cc8c(cc7F)c(N7CCC(=O)NC7=O)nn8C)CC6)CC5)C4)c(=O)c3c2)c1C#N [Compound 1 Form C],Form conversion on temperature cycling,[1],converted to more stable Form B
same,Form conversion on temperature cycling,[1]; listed as Form C,converted to anhydrate Form B
CCN(C)S(=O)(=O)[N-]c1ccc(F)c(Oc2ccc3ncn([C@H]4COC5(CCN(C(=O)CC6(O)CCN(c7cc8c(cc7F)c(N7CCC(=O)NC7=O)nn8C)CC6)CC5)C4)c(=O)c3c2)c1C#N.[K+] [Compound 1 potassium salt Form G],Weight loss (TGA),[2]; at 170° C.,"4.5% at 170° C.,"
same,Weight loss (TGA),[2]; at 170° C.-230° C.,4.8% at 170° C.-
CCN(C)S(=O)(=O)Nc1ccc(F)c(Oc2ccc3ncn([C@H]4COC5(CCN(C(=O)CC6(O)CCN(c7cc8c(cc7F)c(N7CCC(=O)NC7=O)nn8C)CC6)CC5)C4)c(=O)c3c2)c1C#N [Compound 1 potassium salt Form H],"Enthalpy (DSC, J/g)",[2],33.48 J/g
same,"Melting onset (DCS, ° C.)",[2]; Tonset,Tonset 221.7 °C
same,Weight loss (TGA),[2]; at 170° C.,6.6% at
